Source: PMC6327030 (Nature Communications, 2019)
Read-outs that look alike come from different tables or passages of the source.

What was measured:
[1] = molecular target: T1, baculosome-derived full-length SQLE (Homo sapiens, UniProt Q14534); test: Biochemistry assay of SQLE activity with SQLE baculosomes (LC-MS/MS detection of 2,3-oxidosqualene); format: biochemical; conditions: for mechanism of inhibition with respect to squalene substrate: squalene varied from 50 to 0.39 μM, fixed inhibitor concentrations
T1 construct: we overexpressed full-length SQLE in Sf9 cells using a baculovirus system; made in house; host or cells: Sf9 insect cells (baculovirus), membrane preparation (baculosomes)
Experimental: pFastBac1-SQLE was transformed into DH10Bac E. coli (Thermo Fisher) for transposition into bacmid, and positive clones were selected on a blue/white LB agar plate. Recombinant bacmid as isolated from positive clones with the PureLink Hipure Plasmid DNA miniprep kit (Thermo Fisher) and transfected into Sf9 cells (Thermo Fisher) to generate recombinant virus stocks, which were amplified further before Sf9 infection at a multiplicity of infection of two. Infected cells were harvested 72 h post infection and resuspended in phosphate buffered saline, then disrupted by sonication. The cell lysate was clarified by centrifugation at 1500× g for 10 min, the supernatant was further centrifuged at 10,000× g for another 10 min to remove cell debris; and then the supernatant was harvested and centrifuged at 100,000× g for 90 min. The pellet of SQLE baculosomes was collected and homogenized in the buffer (50 mM potassium phosphate, 20% Glycerol, pH7.0) by micro-electric homogenizer (IKA Works, Germany). The protein concentration was determined by the Bradford method. SQLE baculosomes were aliquoted and stored at −80 ℃. The abundance of SQLE in the baculosomes compared to other subcellular fractions was evaluated by immunoblotting against the N-terminal his-tag. Y195A, and Y195F mutant baculosomes were prepared as described above from Sf9 cells infected with engineered viruses.
All biochemistry assay buffers contained 100 mM Tris, 0.1% triton X-100, 1 mM EDTA, 0.1 mM FAD and 1 mM NADPH. […] The reaction was quenched by adding 100 μL of 10 mM ammonium acetate buffer, followed by addition of 600 μL ethyl acetate containing 0.4 mg/mL butylated hydroxytoluene (BHT) to prevent oxidation. The mixture was vortexed for 30 min to extract 2,3-oxidosqualene, then centrifuged at 4000 rpm for 10 min. The supernatant was transferred to a new plate for LC-MS/MS detection. […] Kinetic analysis for HLMs (Sekisui Xenotech, LLC, Kansas City, KS) was performed as for baculosomes, with HLM concentration at 0.5 mg/ml. Kinetic analysis for recombinant SQLE was performed as for baculosomes, with the addition of 1.5 μg/ml recombinant P450R (Sigma-Aldrich).
Samples were dried down under nitrogen and then reconstituted with 70 μL of 0.2 mg/mL BHT in acetonitrile. An aliquot of 7.5 μL was injected into the UPLC-MS/MS system. The instrument setup consisted of an AB Sciex API-6500 Mass Spectrometer (AB Sciex, USA) equipped with a Waters UPLC Acquity (Waters, USA). The UPLC separation was performed on an ACQUITY UPLC BEH C18 (2.1 × 50 mm, 1.7 µm, Waters) at 40 ℃. Formic acid in water (0.1%, v/v, mobile phase A) and a mixture of acetonitrile and isopropanol (80:20, v/v with 0.1% formic acid, mobile phase B) were employed as the mobile phase. An isocratic elution of 98% mobile phase B was used and run time was 1.5 min. The flow rate of mobile phase was set at 0.6 mL/min.

human SQLE = conditions: cited from earlier work; for IC50: previously reported
SQLE (118–574) = molecular target: T2, SQLE (118–574) (Homo sapiens, UniProt Q14534); test: Thermal shift assay, N-terminally truncated SQLE (118–574); format: binding; conditions: 100 μM ligands
T2 construct: to the N-terminally truncated SQLE (118–574), resulting in the selection of this construct for further studies; His6-MBP (TEV site) (N, cleaved yes); made in house; host or cells: Rosetta (DE3) E. coli
Experimental: (§1) Thermal shift assays were performed in 96-well PCR plates using an RT-PCR instrument (ABI 7500 Fast, Applied Biosystems, USA). Standard assay conditions (20 μL) contain 12.5 μL protein (1 mg/mL) in storage buffer 50 mM Tris (pH 8.0), 500 mM NaCl, 5% glycerol and 100 μM corresponding ligands, 5 μL Protein Thermal Shift^TM buffer, and 2.5 μL of the ROX dye (8 × , Protein Thermal Shift^TM Dye Kit, Applied Biosystems, USA). All experiments were performed in triplicate and reaction mixtures were pre-incubated at 4 °C for 1 h. […] For the detergent screening, the SQLE protein was buffer exchanged to 500 mM NaCl, 50 mM Tris-HCl (pH 8.0) containing different detergents using Superdex^TM 200 Increase 10/300 GL gel-filtration column (GE Healthcare, USA) and assayed as described above.

SQLE (118-488) = molecular target: T3, SQLE (118-488) (Homo sapiens, UniProt Q14534); test: Thermal shift assay, SQLE (118-488); format: binding; conditions: 100 μM ligands
T3 construct: Thermal shift assay fluorescence signals obtained for SQLE (118-488), with and without FAD; made in house; host or cells: Rosetta (DE3) E. coli
Experimental: as §1

[2] = molecular target: T4, endogenous SQLE in human liver microsomes (Homo sapiens, UniProt Q14534); test: HLM assay of SQLE activity (human liver microsomes, LC-MS/MS); format: biochemical
T4 construct: human liver microsomes (HLM) which have the advantage of providing endogenous SQLE; tissue Sekisui Xenotech, LLC, Kansas City, KS; host or cells: human liver microsomes
Experimental: All biochemistry assay buffers contained 100 mM Tris, 0.1% triton X-100, 1 mM EDTA, 0.1 mM FAD and 1 mM NADPH. […] The reaction was quenched by adding 100 μL of 10 mM ammonium acetate buffer, followed by addition of 600 μL ethyl acetate containing 0.4 mg/mL butylated hydroxytoluene (BHT) to prevent oxidation. The mixture was vortexed for 30 min to extract 2,3-oxidosqualene, then centrifuged at 4000 rpm for 10 min. The supernatant was transferred to a new plate for LC-MS/MS detection. […] Kinetic analysis for HLMs (Sekisui Xenotech, LLC, Kansas City, KS) was performed as for baculosomes, with HLM concentration at 0.5 mg/ml. […] (Sigma-Aldrich). […] An aliquot of 7.5 μL was injected into the UPLC-MS/MS system. The instrument setup consisted of an AB Sciex API-6500 Mass Spectrometer (AB Sciex, USA) equipped with a Waters UPLC Acquity (Waters, USA). […] Formic acid in water (0.1%, v/v, mobile phase A) and a mixture of acetonitrile and isopropanol (80:20, v/v with 0.1% formic acid, mobile phase B) were employed as the mobile phase. An isocratic elution of 98% mobile phase B was used and run time was 1.5 min. The flow rate of mobile phase was set at 0.6 mL/min.

[3] = molecular target: T5, recombinant N-terminally truncated SQLE (118–574) (Homo sapiens, UniProt Q14534); test: Enzymatic assay with recombinant SQLE (118–574) plus recombinant P450R; format: biochemical; conditions: saturating squalene, varied FAD
T5 construct: First, we used the recombinant N-terminally truncated SQLE (118–574); His6-MBP (TEV site) (N, cleaved yes); made in house; host or cells: Rosetta (DE3) E. coli
Text: The cDNA of human SQLE (NCBI accession number: NM_003129.3) was cloned into pET28a expression vector (Supplementary Table 2). Multiple constructs were designed with six unique N-termini (starting at 1, 101, 111, 118, 124, 144) and four C-termini (ending at 488, 518, 543, 574), along with different affinity/solubilization tags expressed in Rosetta (DE3) E. coli (Shanghai Weidi Biotechnology). Soluble proteins were obtained for four of the expression constructs with N- and C-terminal boundaries corresponding to 101-574, 118-574, 101-488, and 118-488 and were used in crystallization trials. The His6-MBP-TEV-SQLE (118-574) construct in pET28a vector yielded crystals for structure determination. A detergent screen performed using thermal shift assay led to the identification of 3-[(3-cholamidopropyl)dimethylammonio]-1-propanesulfonate (CHAPS) as having the most stabilizing effect. CHAPS detergent was subsequently used for all extraction, purification and crystallization studies of SQLE protein. The plasmid bearing the sequence encoding SQLE was transformed into Rosetta (DE3) E. coli. Cells were grown at 37 °C and induced with 1 mM isopropyl β-D-1-thiogalactopyranoside for about 20 h at 15 °C in Luria Broth media. […] Protein was determined to be > 95% pure by SDS-PAGE and eluted as a monomer as assessed by SEC. […]

[4] = baculosome-derived SQLE, 1 h pre-incubation, 100 μM squalene, read-out: IC50
[5] = IC50, time-dependent inhibition, before increasing incubation time, compound incubation time varied from 0 to 6 h, starting value, 15 min reaction
[6] = compound incubation time varied from 0 to 6 h

T1 sequence (Q14534 whole entry): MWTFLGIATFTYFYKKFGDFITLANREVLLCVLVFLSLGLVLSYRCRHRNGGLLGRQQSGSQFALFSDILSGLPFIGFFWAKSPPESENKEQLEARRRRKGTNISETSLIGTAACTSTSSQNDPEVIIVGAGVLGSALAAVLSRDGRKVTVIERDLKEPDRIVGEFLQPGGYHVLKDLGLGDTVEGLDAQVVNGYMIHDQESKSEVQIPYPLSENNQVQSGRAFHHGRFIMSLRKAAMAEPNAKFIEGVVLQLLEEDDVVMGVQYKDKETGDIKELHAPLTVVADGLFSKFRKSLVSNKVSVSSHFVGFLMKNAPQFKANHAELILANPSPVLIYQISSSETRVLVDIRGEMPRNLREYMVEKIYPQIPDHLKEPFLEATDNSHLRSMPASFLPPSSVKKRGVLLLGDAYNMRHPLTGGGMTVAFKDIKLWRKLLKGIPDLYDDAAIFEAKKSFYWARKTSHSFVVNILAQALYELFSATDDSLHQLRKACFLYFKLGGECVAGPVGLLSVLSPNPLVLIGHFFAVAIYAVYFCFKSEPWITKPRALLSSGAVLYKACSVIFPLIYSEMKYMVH
T4 sequence (Q14534 whole entry): as above
T2 sequence (Q14534 118-574): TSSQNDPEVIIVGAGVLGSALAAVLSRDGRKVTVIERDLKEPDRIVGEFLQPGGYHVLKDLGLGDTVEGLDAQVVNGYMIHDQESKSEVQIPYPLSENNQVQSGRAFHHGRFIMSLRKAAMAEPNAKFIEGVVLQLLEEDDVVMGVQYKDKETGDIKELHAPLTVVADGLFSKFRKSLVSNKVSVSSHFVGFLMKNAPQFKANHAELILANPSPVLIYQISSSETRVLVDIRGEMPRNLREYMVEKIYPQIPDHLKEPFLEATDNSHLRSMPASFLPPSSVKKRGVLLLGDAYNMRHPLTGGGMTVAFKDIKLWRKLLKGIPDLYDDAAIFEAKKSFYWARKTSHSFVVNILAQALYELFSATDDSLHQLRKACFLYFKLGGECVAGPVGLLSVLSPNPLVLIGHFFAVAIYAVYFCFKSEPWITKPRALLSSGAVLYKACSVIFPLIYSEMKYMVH
T3 sequence (Q14534 118-488): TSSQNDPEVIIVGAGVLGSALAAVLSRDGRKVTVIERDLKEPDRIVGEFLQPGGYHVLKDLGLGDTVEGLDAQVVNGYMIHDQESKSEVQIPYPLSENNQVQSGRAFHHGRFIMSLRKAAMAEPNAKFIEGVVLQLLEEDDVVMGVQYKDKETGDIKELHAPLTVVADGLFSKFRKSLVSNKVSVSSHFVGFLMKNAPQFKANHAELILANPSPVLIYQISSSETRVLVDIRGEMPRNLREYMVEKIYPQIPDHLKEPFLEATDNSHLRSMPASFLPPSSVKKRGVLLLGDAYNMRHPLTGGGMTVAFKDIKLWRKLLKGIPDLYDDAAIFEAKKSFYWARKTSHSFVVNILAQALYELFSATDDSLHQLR
T5 sequence (Q14534 118-574): as the sequence (Q14534 118-574) above

IC50 [1, 4] [nM]	Compound	IC50 [1, 5] [nM]	time dependence of inhibition [1, 6]	mechanism of inhibition with respect to squalene substrate [1]	IC50 (human SQLE) [nM]	also measured
> 100000	CCN(CC#CC#CC(C)(C)OC)Cc1cccc(OC[Si](C)(C)c2cccc(C)c2)c1 [Cmpd-4′′.ia]	–	–	–	–	–
–	Cc1cc2nc3c(=O)[nH]c(=O)nc-3n(C[C@H](O)[C@H](O)[C@H](O)COP(=O)(O)OP(=O)(O)OC[C@H]3O[C@@H](n4cnc5c(N)ncnc54)[C@H](O)[C@@H]3O)c2cc1C [FAD, flavin adenosine dinucleotide]	–	–	–	–	ΔTm (SQLE (118–574); Supplementary Figure 1c): 2.1 °C; mean Tm (SQLE (118–574); control Tm 48.0): 50.1 °C; ΔTm (SQLE (118-488); Supplementary Figure 1c): 4.7 °C; mean Tm (SQLE (118-488); control Tm 44.0): 48.7 °C; Km ([1]; SQLE baculosome, saturating squalene, varied FAD): 8.1 ± 0.6 µM; Km ([2]; HLMs, saturating squalene, varied FAD): 9.6 ± 0.5 µM; Km [3]: 5.2 ± 0.5 µM
> 100000	CCN(C/C=C/C#CC(C)(C)C)Cc1cccc(OCc2cc(-c3ccccc3)cs2)c1 [NB-598.ia]	–	–	–	–	–
63	CCN(C/C=C/C#CC(C)(C)C)Cc1cccc(OCc2cc(-c3ccsc3)cs2)c1 [NB-598]	120	time-dependent inhibition	non-competitive inhibition	10 to 60	IC50 ([1]; IC50, time-dependent inhibition, upon increasing incubation time, compound incubation time varied from 0 to 6 h, final value, 15 min reaction): 30 nM; mechanism of action (previous report) (human SQLE): competitive
–	CN(C/C=C/C#CC(C)(C)C)Cc1cccc2ccccc12 [terbinafine]	–	–	–	–	inhibition at 100 µM ([2]; HLM assay, at 100 µM inhibitor concentration, read-out: maximal inhibition): 65%

Compound	IC50 [1, 4] [nM]	IC50 [1, 5] [nM]	time dependence of inhibition [1, 6]	mechanism of inhibition with respect to squalene substrate [1]	IC50 (human SQLE) [nM]	also measured
CCN(CC#CC#CC(C)(C)OC)Cc1cccc(OC[Si](C)(C)c2ccccc2C)c1 [Cmpd-4′′]	69	800	time-dependent inhibition	non-competitive inhibition	10 to 60	–
